Source: paper PMC7024302, “Ultrashort Cationic Lipopeptides–Effect of N-Terminal Amino Acid and Fatty Acid Type on Antimicrobial Activity and Hemolysis” (Molecules, 2020)
Converted amounts (≈) assume the structure as drawn. Residues, ends and D or L forms follow the SMILES beside them.

Assays:
[1] = Determination of peptide hydrophobicity with RP-HPLC (adjusted retention time); format: physicochemical; conditions: for tR’: Table 3, adjusted retention time as hydrophobicity; for tR’ / Adjusted retention time: RP-HPLC C18, linear 10–55% acetonitrile over 60 min; for tR’ / tR’ (adjusted retention time) / Adjusted retention time: 0.1% TFA, 25.0 °C, UV 214 nm, triplicate; for tR’ (adjusted retention time): Table 1 and b9, measure of hydrophobicity, RP-HPLC, Phenomenex Luna C18(2) 3.0 × 100 mm, 5 µm, linear 10–55% acetonitrile in water over 60 min, 0.5 mL/min, peptide 1 g/L; for Adjusted retention time: Table 2, nC = carbon atoms in fatty acid chain; for ∆tR: tR’ of the lipopeptide minus tR’ of C10-RR-NH2 or C12-RR-NH2, same RP-HPLC conditions
Procedure: To determine peptide hydrophobicity, the Waters Alliance e2695 system with a Waters 2998 PDA Detector (software-Empower®3) was used. All analyses were carried out on a Phenomenex Luna C18(2) column (3.0 × 100 mm, 5 µm particle size, 100 Å pore size). The peptides were dissolved in water (0.1% TFA, v/v) to obtain a concentration of 1 g/L. UV detection at 214 nm was used, and aliquots (10 µL) were eluted with a linear 10–55% acetonitrile gradient in deionized water over 60 min at 25.0 ± 0.1 °C. The mobile phase flow rate was 0.5 mL/min. Both eluents contained 0.1% (v/v) of TFA. Each peptide sample was analyzed in triplicate.

P. aeruginosa ATCC 9027 = format: cell-based, Pseudomonas aeruginosa; conditions: ATCC 9027, 18 h
Excerpt: (§1) The Acinetobacter baumannii ATCC BAA-1605, Candida albicans ATCC 10231, Enterococcus faecium ATCC 700221, Klebsiella aerogenes ATCC 13048 (previously known as Enterobacter aerogenes), Klebsiella pneumoniae ATCC 700603, Pseudomonas aeruginosa ATCC 9027, Staphylococcus aureus ATCC 25923 and MRSA ATCC 33591, were acquired from the American Type Culture Collection (ATCC). Before running the tests, beads with cryo-protected microorganisms were transferred into fresh MHB (BioMaxima, Lublin, Poland) for bacteria or RPMI-1640 for fungi and incubated for 24 h at 37 °C. Then, the culture was seeded on the Mueller-Hinton agar (MHA) plates (BioMaxima, Lublin, Poland) for bacteria or Sabouraud dextrose agar (SDA) plates (BioMaxima, Lublin, Poland) for fungi and incubated as just mentioned. Cell densities for all assays were adjusted spectrophotometrically (Multiskan™ GO Microplate Spectrophotometer, Thermo Fisher Scientific, Vantaa, Finland) at 600 nm for bacteria and at 530 nm for fungi.
(§2) The MICs were determined by broth microdilution method according to the Clinical and Laboratory Standard Institute guidelines. For this purpose initial inoculums of bacteria (5 × 10^5 CFU/mL) in MHB (BioMaxima, Lublin, Poland) and fungi (2 × 10^3 CFU/mL) in RPMI-1640 with 2% D-glucose (Merck, Darmstadt, Germany) prepared with MOPS (pH 7.0 ± 0.1 at 25 °C; Merck, Darmstadt, Germany) were exposed to the ranging concentration of lipopeptides (0.5–256 µg/mL) and incubated at 37 °C for 18 h and 24 h respectively. The experiments were conducted on 96-well microtiter polystyrene plates (Kartell, Italy). The MIC was taken as the lowest peptide concentration at which a noticeable growth of microorganisms was inhibited. All experiments were conducted in triplicate.

[2] = tested on: human red blood cells (hRBCs); format: cell-based; conditions: red cells of human, 1 h
Procedure: The hemolysis assay was performed as described earlier according to the method of Avrahami and Shai. Fresh human red blood cells (hRBCs) with anticoagulant (EDTA) were rinsed three times with a PBS (Merck, Darmstadt, Germany) by centrifugation at 800× g for 10 min and resuspended in PBS. Lipopeptides were serially diluted on 96-well microtiter polystyrene plate and hRBCs were added to reach final volume of 100 µL. Peptide concentration ranged between 0.5 and 256 µg/mL and final hRBCs concentration was 4% (v/v). Controls for zero hemolysis (blank) and 100% hemolysis consisted of hRBCs suspended in PBS and 1% of Triton-X 100 (Merck, Darmstadt, Germany), respectively. The plate was incubated for 1 h at 37 °C and then centrifuged (800× g, 10 min, 4 °C). Subsequently, supernatant was […] to new microtiter plates and absorbance at 540 nm were measured. All experiments were conducted in triplicate. Protocol of the study received approval from the local Bioethics Committee at the Medical University of Gdańsk (NKBBN/262/2019).

S. aureus ATCC 25923 = format: cell-based, Staphylococcus aureus; conditions: ATCC 25923, 18 h
Excerpt: as §1, §2

C. albicans ATCC 10231 = format: cell-based, Candida albicans; conditions: ATCC 10231, 24 h, pH 7
Excerpt: as §1, §2

K. aerogenes ATCC 13048 = format: cell-based, Klebsiella aerogenes; conditions: ATCC 13048, 18 h
Excerpt: as §1, §2

[3] = tested on: A. baumannii ATCC BAA-1605; format: cell-based, Acinetobacter baumannii; conditions: ATCC BAA-1605, 18 h
Excerpt: as §1, §2

[4] = tested on: K. pneumoniae ATCC 700603; format: cell-based, Klebsiella pneumoniae; conditions: ATCC 700603, 18 h
Excerpt: as §1, §2

[5] = tested on: S. aureus ATCC 33591 (MRSA); format: cell-based, Staphylococcus aureus; conditions: ATCC 33591, 18 h
Excerpt: as §1, §2

E. faecium ATCC 700221 = format: cell-based, Enterococcus faecium; conditions: ATCC 700221, 18 h
Excerpt: as §1, §2

Row | Structure (SMILES) | tR’ [1] | tR’ (adjusted retention time) [1] | MIC PA (P. aeruginosa ATCC 9027) | HC50 [2] | MIC SA (S. aureus ATCC 25923) | MIC CA (C. albicans ATCC 10231) | also measured
1 | CCCCCCCC(=O)N[C@@H](CCCNC(=N)N)C(=O)N[C@@H](CCCNC(=N)N)C(N)=O [compound 1, C8-RR-NH2, reference compound] (HELM PEPTIDE1{[CCCCCCCC(=O)[*:2]].R.R.[am]}$$$$V2.0) | 14.46 min |  |  |  |  |  | 
2 | CCCCCCCCCC(=O)N[C@@H](CCCNC(=N)N)C(=O)N[C@@H](CCCNC(=N)N)C(N)=O [compound 2, C10-RR-NH2, reference compound] (HELM PEPTIDE1{[CCCCCCCCCC(=O)[*:2]].R.R.[am]}$$$$V2.0) | 24.30 min | 24.30 min |  |  |  |  | 
3 | CCCCCCCCCCCCCC(=O)N[C@@H](CC(=O)O)C(=O)N[C@@H](CCCNC(=N)N)C(=O)N[C@@H](CCCNC(=N)N)C(N)=O [compound 18, C14-DRR-NH2] (HELM PEPTIDE1{[CCCCCCCCCCCCCC(=O)[*:2]].D.R.R.[am]}$$$$V2.0) | 40.25 min |  | 128 µg/mL (≈ 195 µM) | 49.95 (±1.00) µg/mL | 64 µg/mL (≈ 97.7 µM) | 32 µg/mL (≈ 48.9 µM) | 
4 | CCCCCCCCCCCCCC(=O)N[C@@H](CCC(=O)O)C(=O)N[C@@H](CCCNC(=N)N)C(=O)N[C@@H](CCCNC(=N)N)C(N)=O [compound 22, C14-ERR-NH2] (HELM PEPTIDE1{[CCCCCCCCCCCCCC(=O)[*:2]].E.R.R.[am]}$$$$V2.0) | 40.17 min |  | 128 µg/mL (≈ 191 µM) | 59.51 (±4.00) µg/mL | 64 µg/mL (≈ 95.7 µM) | 32 µg/mL (≈ 47.8 µM) | 
5 | CCCCCCCCCCCC(=O)NCC(=O)N[C@@H](CCCNC(=N)N)C(=O)N[C@@H](CCCNC(=N)N)C(N)=O [compound 29, C12-GRR-NH2] | 33.20 min |  | 128 µg/mL (≈ 225 µM) | >256 µg/mL | 32 µg/mL (≈ 56.3 µM) | 64 µg/mL (≈ 113 µM) | 
6 | CCCCCCCC(=O)N[C@@H](CCCC)C(=O)N[C@@H](CCCNC(=N)N)C(=O)N[C@@H](CCCNC(=N)N)C(N)=O [compound 63, C8-NleRR-NH2] (HELM PEPTIDE1{[CCCCCCCC(=O)[*:2]].[Nle].R.R.[am]}$$$$V2.0) |  |  |  |  |  |  | Adjusted retention time [1]: 25.429 min
7 | CCCCCCCCCC(=O)N[C@@H](CCCC)C(=O)N[C@@H](CCCNC(=N)N)C(=O)N[C@@H](CCCNC(=N)N)C(N)=O [compound 64, C10-NleRR-NH2] (HELM PEPTIDE1{[CCCCCCCCCC(=O)[*:2]].[Nle].R.R.[am]}$$$$V2.0) |  |  | 64 µg/mL (≈ 107 µM) | >256 µg/mL | 32 µg/mL (≈ 53.6 µM) | 64 µg/mL (≈ 107 µM) | Adjusted retention time [1]: 33.155 min
8 | CCCCCCCCCCCC(=O)N1CCC[C@H]1C(=O)N[C@@H](CCCNC(=N)N)C(=O)N[C@@H](CCCNC(=N)N)C(N)=O [compound 73, C12-PRR-NH2] | 35.82 min |  | 64 µg/mL (≈ 105 µM) | >256 µg/mL | 32 µg/mL (≈ 52.6 µM) | 64 µg/mL (≈ 105 µM) | 
9 | CCCCCCCCCCCC(=O)N[C@H](C(=O)N[C@@H](CCCNC(=N)N)C(=O)N[C@@H](CCCNC(=N)N)C(N)=O)[C@@H](C)O [compound 89, C12-TRR-NH2] (HELM PEPTIDE1{[CCCCCCCCCCCC(=O)[*:2]].T.R.R.[am]}$$$$V2.0) | 33.82 min |  | 128 µg/mL (≈ 209 µM) | >256 µg/mL | 32 µg/mL (≈ 52.2 µM) | 64 µg/mL (≈ 104 µM) | 
10 | CCCCCCCCC(CCCCCC)C(=O)N[C@@H](CCCNC(=N)N)C(=O)N[C@@H](CCCNC(=N)N)C(N)=O (stereo partly drawn) [compound 105, C10(6)-RR-NH2] |  |  | 8 µg/mL (≈ 14.1 µM) | 200.25 (±16.07) µg/mL | 4 µg/mL (≈ 7.04 µM) | 16 µg/mL (≈ 28.2 µM) | MIC E2 (K. aerogenes ATCC 13048): >256 (-) µg/mL; MIC A [3]: 256 µg/mL (≈ 451 µM); MIC K [4]: >256 (-) µg/mL; MIC S [5]: 4 µg/mL (≈ 7.04 µM); MIC E1 (E. faecium ATCC 700221): 8 µg/mL (≈ 14.1 µM)
11 | CCCCCCCCCC(=O)N[C@@H](CCCNC(=N)N)C(=O)N[C@@H](Cc1ccccc1)C(=O)N[C@@H](CCCNC(=N)N)C(N)=O [compound 106, C10-RFR-NH2] (HELM PEPTIDE1{[CCCCCCCCCC(=O)[*:2]].R.F.R.[am]}$$$$V2.0) |  | 31.44 min |  |  |  |  | ∆tR [1]: 7.14 min
12 | CCCCCCCCCCCC(=O)N[C@@H](CCCNC(=N)N)C(=O)N[C@@H](Cc1ccccc1)C(=O)N[C@@H](CCCNC(=N)N)C(N)=O [compound 107, C12-RFR-NH2] (HELM PEPTIDE1{[CCCCCCCCCCCC(=O)[*:2]].R.F.R.[am]}$$$$V2.0) |  | 38.67 min |  |  |  |  | ∆tR [1]: 6.09 min
13 | CCCCCCCCCC(=O)N[C@@H](CCCNC(=N)N)C(=O)N[C@@H](CCCNC(=N)N)C(=O)N[C@@H](Cc1ccccc1)C(N)=O [compound 108, C10-RRF-NH2] (HELM PEPTIDE1{[CCCCCCCCCC(=O)[*:2]].R.R.F.[am]}$$$$V2.0) |  | 31.07 min |  |  |  |  | ∆tR [1]: 6.77 min
14 | CCCCCCCCCCCC(=O)N[C@@H](CCCNC(=N)N)C(=O)N[C@@H](CCCNC(=N)N)C(=O)N[C@@H](Cc1ccccc1)C(N)=O [compound 109, C12-RRF-NH2] (HELM PEPTIDE1{[CCCCCCCCCCCC(=O)[*:2]].R.R.F.[am]}$$$$V2.0) |  | 38.02 min |  |  |  |  | ∆tR [1]: 5.44 min
